Measurements as given in patent publication US4692448A, “Bis(arylpiperazinyl)sulfur compounds” (Boehringer Ingelheim Pharmaceuticals, Inc., priority 1984, dated 1987).
Structures can show the parent of a compound that is named as a salt. Where two headings read alike, the source gives them in different places.

Key:
[1] = tested on: histamine release from human leukocytes (basophils); assay: Human basophil assay: inhibition of anti-IgE-induced (IgE-mediated) histamine release; type: cell-based; conditions: for IC50: Leukocyte; for inhibition of histamine release in human basophils (in words): IgE-mediated, in vitro
Method: In the experiments reported by this example compounds in accordance with the invention are evaluated to determine their ability to inhibit the IgE-mediated release of histamine from sensitized peripheral leucocytes (basophils). Separation of leukocytes is accomplished by a modification of the method of L. Lichtenstein and A. Osler, J. Exp. Med. 120: 507 (1964). Heparinized human blood (80-100 ml) is mixed with 20 ml of saline (0.2%) containing 0.6 g of dextrose and 1.2 g of dextran in propylene centrifuge tubes. The mixture is kept at ambient temperature for 60-90 minutes to allow the separation of erythrocytes from the platelet-leukocyte-rich supernate. The supernate is removed and centrifuged for 8 minutes at 10×g in the cold. The leukocyte pellet is washed twice with Tris buffer and finally suspended in 150-180 ml Tris-ACM buffer at 1-2×10^6 cells/ml. The reaction is carried out in 12×75 mm plastic tubes at a total volume of […]. The reaction medium includes 0.05 ml rabbit anti-human IgE, 0.2 ml of the test compound in Tris-ACM buffer at concentrations ranging from 10-1000 μM, and 1.0 ml of the leukocyte suspension. The reaction mixture is incubated in a 37° C. shaking water bath for 60 minutes. Upon completion of the reaction, the tubes are centrifuged and the supernatants collected. The protein is removed from the supernatants by precipitation with 0.2 ml of 8% perchloric acid. Histamine release is measured by the automated fluorometric method of W Siraganian and W. Hook in Chapter 108, pages 808-821 of the Manual of Clinical Immunology, 2nd Edition, edited by R. Rose and H. Friedman, published by the American Society for Microbiology, Washington, D.C., 1980. Percent inhibition is calculated as follows: [formula] The concentration which causes a 50 percent inhibition (1C50) of histamine release is interpolated from a plot of percent inhibition versus the logarithm of drug concentration.

lipoxygenase pathway = assay: Blocking the metabolic conversion of arachidonic acid in the lipoxygenase pathway; conditions: no method or data given
[2] = tested on: histamine release from basophils activated by ionophore A-23187; assay: Human basophil assay: inhibition of histamine release induced by non-immunological ionophore A-23187; type: cell-based; conditions: 1000-fold test dosage range
Method: Separation of leukocytes is accomplished by a modification of the method of L. Lichtenstein and A. Osler, J. Exp. Med. 120: 507 (1964). Heparinized human blood (80-100 ml) is mixed with 20 ml of saline (0.2%) containing 0.6 g of dextrose and 1.2 g of dextran in propylene centrifuge tubes. The mixture is kept at ambient temperature for 60-90 minutes to allow the separation of erythrocytes from the platelet-leukocyte-rich supernate. The supernate is removed and centrifuged for 8 minutes at 10×g in the cold. The leukocyte pellet is washed twice with Tris buffer and finally suspended in 150-180 ml Tris-ACM buffer at 1-2×10^6 cells/ml.
The reaction is carried out in 12×75 mm plastic tubes at a total volume of 1.23 ml. […] The reaction mixture is incubated in a 37° C. shaking water bath for 60 minutes. Upon completion of the reaction, the tubes are centrifuged and the supernatants collected. The protein is removed from the supernatants by precipitation with 0.2 ml of 8% perchloric acid.
Histamine release is measured by the automated fluorometric method of W Siraganian and W. Hook in Chapter 108, pages 808-821 of the Manual of Clinical Immunology, 2nd Edition, edited by R. Rose and H. Friedman, published by the American Society for Microbiology, Washington, D.C., 1980. Percent inhibition is calculated as follows: [formula] […]

[3] = 1 h, human basophils, rabbit anti-human IgE, 37° C., 60 minutes, read-out: IN VITRO INHIBITION OF HISTAMINE RELEASE IC50

Row | Compound | IC50 [1, 3] | other results
1 | Clc1ccc(CN2CCN(CCCSSCCCN3CCN(Cc4ccc(Cl)cc4)CC3)CC2)cc1 [Example 1, 1,1'-(Dithiodi-3,1-propanediyl)bis[4-(4-chlorobenzyl)piperazine]] | 2 µM | 
2 | Clc1ccc(CN2CCN(CCSSCCN3CCN(Cc4ccc(Cl)cc4)CC3)CC2)cc1 [Example 2, 1,1'-(dithiodi-2,1-ethanediyl)bis[4-(4-chlorobenzyl)piperazine]tetrahydrochloride] | 2.4 µM | blocking the metabolic conversion of arachidonic acid in the lipoxygenase pathway (in words) (lipoxygenase pathway): effective in blocking; IC50 [2]: 2670 nM; IC50 ([1]; Homo sapiens, anti-IgE, further repetition of testing, read-out: IC50 (histamine release), further repetition): 5.29 µM; IC50 ([1]; Homo sapiens, anti-IgE, range of concentrations up to the limits of its solubility, read-out: IC50 (histamine release)): 3.7 µM
3 | Cc1ccccc1CN1CCN(CCSSCCN2CCN(Cc3ccccc3C)CC2)CC1 [Example 3, 1,1'-(dithiodi-2,1-ethanediyl)bis[4-(2-methylbenzyl)piperazine]tetrahydrochloride] | 15 µM | 
4 | Clc1ccc(CN2CCN(CCCSCCN3CCN(Cc4ccc(Cl)cc4)CC3)CC2)cc1 [Example 4, {2-[4-(4-chlorobenzyl)piperazin-1-yl)ethyl}{3-[4-(4-chlorobenzyl)piperazin-1-yl]propyl}sulfide tetrahydrochloride] | 2.4 µM | 
5 | Clc1ccc(CN2CCN(CCCSCCCN3CCN(Cc4ccc(Cl)cc4)CC3)CC2)cc1 [Example 5, 1,1'-(thio-3,1-propanediyl) bis-[4-(4-chlorobenzyl)piperazine] tetrahydrochloride] | 1.9 µM | 
6 | [O-][S+](CCCN1CCN(Cc2ccc(Cl)cc2)CC1)CCCN1CCN(Cc2ccc(Cl)cc2)CC1 [Example 6, 1,1'-(sulfinyl-3,1-propanediyl) bis[4-(4-chlorobenzyl)piperazine] tetrahydrochloride] | 5.6 µM | 
7 | O=S(=O)(CCCN1CCN(Cc2ccc(Cl)cc2)CC1)CCCN1CCN(Cc2ccc(Cl)cc2)CC1 [Example 7, 1,1'-(sulfonyl-3,1-propanediyl) bis[4-(4-chlorobenzyl)piperazine] tetrahydrochloride] | 3.4 µM | 
8 | N#Cc1ccc(CN2CCN(CCSSCCN3CCN(Cc4ccc(C#N)cc4)CC3)CC2)cc1 [Example 8, 1,1'-(dithiodi-2,1-ethanediyl)bis[4-(4-cyanobenzyl)piperazine] tetrahydrochloride] | 28 µM | 
9 | c1ccc(CN2CCN(CCCSSCCCN3CCN(Cc4ccccc4)CC3)CC2)cc1 [Example 9, 1,1'-(dithiodi-3,1-propanediyl)bis(4-benzylpiperazine) tetrahydrochloride] | 13.7 µM | 
10 | Cl.Cl.Cl.Cl.Clc1ccc(CCN2CCN(CCCSSCCCN3CCN(CCc4ccc(Cl)cc4)CC3)CC2)cc1 [Example 10, 1,1'-(dithiodi-3,1-propanediyl)-bis [4-(4-chlorophenethyl)piperazine] tetrahydrochloride] | > 1000 µM | inhibition of histamine release in human basophils (in words) [1]: absence of observed activity
11 | Clc1ccc(CN2CCCN(CCCSSCCCN3CCCN(Cc4ccc(Cl)cc4)CC3)CC2)cc1 [Example 11, 1,1'-(dithiodi-3,1-propanediyl)bis[4-(4-chlorobenzyl)homopiperizine] tetrahydrochloride] | > 1000 µM | inhibition of histamine release in human basophils (in words) [1]: absence of observed activity
12 | Cc1ccc(CN2CCN(CCSSCCN3CCN(Cc4ccc(C)cc4)CC3)CC2)cc1 [Example 12, 1,1'-(dithiodi-2,1-ethanediyl)bis[4-(4-methylbenzyl)piperazine] tetrahydrochloride] | 4.7 µM | 
13 | Cl.Cl.Cl.Cl.Clc1ccc(CCCN2CCN(CCSSCCN3CCN(CCCc4ccc(Cl)cc4)CC3)CC2)cc1 [Example 13, 1,1'-(dithiodi-2,1-ethanediyl)bis{4-[3-(4-chlorophenyl)propyl]piperazine} tetrahydrochloride] | > 1000 µM | inhibition of histamine release in human basophils (in words) [1]: absence of observed activity
